Test results as given in patent publication US20230190761A1, “METHYLENE BLUE STABILIZED MRNA COMPOSITIONS” (ModernaTX, Inc., priority 2020, published 2023).
Structures can show the parent of a compound that is named as a salt.

What was measured:
Assay type in all cases: physicochemical
[1] = test system: mRNA within LNP formulations; assay: Screen of molecular dyes on mRNA stability within LNP formulations (RP-HPLC); conditions: for Main Peak Purity after 4 days at 40° C. (%): 2 mM dye in mRNA-LNP, RP-HPLC, no value (—) = physically unstable, no reliable chromatographic result, interpreted as destabilizing; for Difference relative to No Dye: main peak purity, ±4% interpreted as significant; for Difference relative to No Dye / stabilization effect on mRNA in LNP: 2 mM dye, 4 days at 40° C.
Method: This example discusses the effects of various dye molecules on mRNA stability within LNP formulations. To evaluate the potential stabilization effects of dyes, LNP compositions were prepared containing 2 mM of one of 25 dyes. After incubation for 4 days at 40° C., main peak mRNA purity was measured by RP-HPLC. Variance within this study was estimated from three independent sample replicates with no dye (Sample IDs D0a, D0b and D0c as shown in Table 4) or with 2 mM methylene blue (Sample IDs D1a, D1b and D1c as shown in Table 4). […] The main peak purity measured in each mRNA-LNP formulation, as well as its difference relative to the no dye controls is shown in Table 4. Positive differences relative to no dye represent improvements in mRNA stability, and negative differences represent worsened mRNA stability.

[2] = test system: lipid nanoparticles (LNP); assay: Permeation of phenothiazinium dyes into LNP and binding to encapsulated mRNA; conditions: optical spectroscopic studies, Cryo-EM, DLS, isothermal titration calorimetry
Source text: This example describes phenothiazinium dyes which interact with mRNA and their impact on LNP formulations. […] These interpretations were made based on extensive optical spectroscopic studies, Cryo-EM, dynamic light scattering (DLS) and isothermal titration calorimetry studies.

mRNA-LNP = assay: Conventional antioxidants versus methylene blue on mRNA-LNP stability; conditions: 2 mM KDS, 5 mM KDS or 5 mM methionine, presence or absence of 2 mM methylene blue
Method: This example discusses the effects of conventional pharmaceutical antioxidants on mRNA stability. To evaluate the effects conventional pharmaceutical antioxidants might have on mRNA stability relative to methylene blue, a direct comparative study was performed between methionine, potassium metabisulfite (KDS) and methylene blue. mRNA purity was measured after incubation of mRNA-LNP compositions with no additive, or with 2 mM KDS, 5 mM KDS, or 5 mM methionine, in the presence or absence of 2 mM methylene blue.

Compound	Main Peak Purity after 4 days at 40° C. (%) [1] [%]	Difference relative to No Dye [1] [%]	stabilization effect on mRNA in LNP [1]	permeation of lipid nanoparticles and binding to encapsulated mRNA [2]	stabilization effect on mRNA purity (mRNA-LNP)
CN(C)c1ccc2cc3ccc(N(C)C)cc3nc2c1 [Acridine Orange hydrochloride hydrate]	69.92	−5			
CN(C)c1ccc(C(=C2C=CC(=[N+](C)C)C=C2)c2ccc(N(C)C)cc2)cc1 [Crystal Violet]	24.79	−50			
O=C(O)c1ccccc1-c1c2cc([N+](=O)[O-])c(=O)c(Br)c-2oc2c(Br)c(O)c([N+](=O)[O-])cc12 [Eosin B]	78.00	3			
Oc1cc2c(cc1O)[C@@H]1c3ccc(O)c(O)c3OC[C@]1(O)C2 [Hematoxylin]	39.82	−35			
O=S([O-])S(=O)(=O)[O-].[K+].[K+] [KDS, potassium metabisulfite]					Neither KDS nor methionine showed any stabilization effect
CCNc1cc2[s+]c3cc(NCC)c(C)cc3nc2cc1C [New methylene blue N]	68.61	−6			
CCN(CC)c1ccc2nc3c4ccccc4c(=O)cc-3oc2c1 [Nile Red]	77.56	3			
CN(C)c1ccc2cc3ccc(=[N+](C)C)cc-3oc2c1.[Cl-] [Pyronin Y]	68.68	−6			
Cc1cc2nc3cc(C)c(N)cc3[n+](-c3ccccc3)c2cc1N [Safranin O]	89.14	14	stabilization effects similar to that of methylene blue		
O=[N+]([O-])[O-].[Ag+] [Silver nitrate (0.1 N), Silver nitrate]	77.90	3			
Cc1cc2nc3ccc(N(C)C)cc3[s+]c2cc1N [Toluidine Blue O]	74.66	0			
CSCC[C@H](N)C(=O)O [methionine]					Neither KDS nor methionine showed any stabilization effect
Bromophenol Blue sodium salt	35.53	−39			

Continued, in another order:

Main Peak Purity after 4 days at 40° C. (%) [1] [%]	Difference relative to No Dye [1] [%]	Compound	stabilization effect on mRNA in LNP [1]	permeation of lipid nanoparticles and binding to encapsulated mRNA [2]	stabilization effect on mRNA purity (mRNA-LNP)
74.27	−1	Cc1c(C(=O)O)c(O)cc2c1C(=O)c1c(O)c(C3O[C@H](CO)[C@@H](O)[C@H](O)[C@H]3O)c(O)c(O)c1C2=O (stereo in doubt) [Carmine]			
90.36	15	CN(C)c1ccc2nc3ccc(N)cc3[s+]c2c1 [Azure A chloride]	stabilization effects similar to that of methylene blue	can permeate lipid nanoparticles (LNP) and bind to encapsulated mRNA without altering the gross structure of the LNP	
90.16	15	CNc1ccc2nc3ccc(=[N+](C)C)cc-3sc2c1 [Azure B]	stabilization effects similar to that of methylene blue	can permeate lipid nanoparticles (LNP) and bind to encapsulated mRNA without altering the gross structure of the LNP	
59.34	−16	Cc1cc2nc3ccc(=[N+](C)C)cc-3[nH]c2cc1N [Neutral Red]			
70.75	−4	CCN(CC)c1ccc2nc3c4ccccc4c(=N)cc-3oc2c1 [Nile Blue A]			
89.46	14	Leucomethylene Blue (mesylate)	stabilization effects similar to that of methylene blue		
